In ChEMBL document CHEMBL1124950, “Synthesis and cardiotonic activity of novel biimidazoles” (J Med Chem, 1990):
Active and inactive are the calls of the source. The rule behind the calls is not given here.

Legend:
[1] = system: Rattus norvegicus; experiment: 25% increase in left ventricular (dP/dtmax) after iv administration in anesthetized rat; Not active at 3 mg/kg; format: functional, organism-based; parameters: dose 3 mg/kg; details: Heart left ventricle
[2] = system: Canis familiaris; experiment: 25% increase in left ventricular contractility (dP/dtmax) in anesthetized dog on iv administration; format: functional; details: Canis lupus familiaris, Heart left ventricle
[3] = system: Rattus norvegicus; experiment: 25% increase in left ventricular contractility (dP/dtmax) on iv administration in anesthetized rat; not active; format: functional, organism-based; details: Heart left ventricle
[4] = system: Rattus norvegicus; experiment: 25% increase in left ventricular contractility (dP/dtmax) on iv administration in anesthetized rat; Not active at 3 mg/kg; format: functional, organism-based; parameters: dose 3 mg/kg; details: Heart left ventricle
[5] = system: Canis familiaris; experiment: Peak percent change in contractile force produced by the administration of 1 mg/kg intravenously in anesthetized dog; format: functional, Canis lupus familiaris; details: route intravenous
[6] = system: Canis familiaris; experiment: Peak percent change in contractile force produced by the administration of 1 mg/kg intravenously in anesthetized dog; Not active; details: Canis lupus familiaris
[7] = system: Canis familiaris; experiment: 25% increase in left ventricular contractility (dP/dtmax) on iv administration in anesthetized dog; format: functional; details: Canis lupus familiaris, Heart left ventricle
[8] = system: Canis lupus familiaris; experiment: 25% increase in left ventricular contractility (dP/dtmax) after iv administration in anesthetized dog; details: Heart left ventricle
[9] = system: Canis familiaris; experiment: Peak percent change in contractile force produced after iv administration at 0.3 mg/kg in anesthetized dog; format: functional, Canis lupus familiaris
[10] = system: Canis familiaris; experiment: Inotropic effect in anesthetized dog; format: functional; details: Canis lupus familiaris
[11] = system: Canis familiaris; experiment: Peak percent change in contractile force produced after iv administration at 0.3 mg/kg in ansthetetized dog; format: functional, Canis lupus familiaris
[12] = system: Rattus norvegicus; experiment: 25% increase in left ventricular contractility (dP/dtmax) on iv administration in anesthetized rat; format: functional; details: Heart left ventricle
[13] = system: Canis familiaris; experiment: Peak percent change in contractile force produced by 1 mg/kg administered intravenously in anesthetized dog; format: functional, Canis lupus familiaris; details: route intravenous
[14] = molecular target: T1, Phosphodiesterase 4 (Homo sapiens, UniProt P27815+Q08499+Q07343+Q08493); experiment: (§1) Inhibition of canine kidney Phosphodiesterase 4; format: protein assay; details: Canis lupus familiaris; target entry is the homologue from another species; concentration not given here
[15] = system: Canis familiaris; experiment: Increased heart rate in conscious dogs on oral administration at 10 mg/kg; format: functional, Canis lupus familiaris
[16] = molecular target: T1, Phosphodiesterase 4; experiment: Inhibition of canine heart Phosphodiesterase 4; format: protein assay, Canis lupus familiaris; details: target entry is the homologue from another species
[17] = molecular target: T1, Phosphodiesterase 4; experiment: as §1; format: protein assay, Canis lupus familiaris; details: target entry is the homologue from another species
[18] = system: Canis familiaris; experiment: Inotropic activity in anesthetized dog; format: functional; details: Canis lupus familiaris
[19] = system: Canis familiaris; experiment: Peak percent change in contractile force produced after iv administration at 1 mg/kg in anesthetized dog
[20] = molecular target: T1, Phosphodiesterase 4; experiment: Inhibition of canine kidney Phosphodiesterase 4 at 150 uM; details: Canis lupus familiaris, target entry is the homologue from another species
[21] = system: Rattus norvegicus; experiment: 25% increase in left ventricular contractility (dP/dtmax) after iv administration in anesthetized rat; format: functional; details: Heart left ventricle
[22] = system: Rattus norvegicus; experiment: 25% increase in left ventricular contractility (dP/dtmax) on iv administration in anesthetized rat; Not active; format: functional, organism-based; details: Heart left ventricle
[23] = system: Canis familiaris; experiment: Peak percent change in contractile force produced by the administration of 1 mg/kg intravenously in anesthetized dog; not active; format: functional, organism-based; parameters: dose 1 mg/kg; details: Canis lupus familiaris; at 1 mg/kg
[24] = system: Canis familiaris; experiment: 25% increase in left ventricular contractility (dP/dtmax) after iv administration in anesthetized dog; Not active; format: functional; details: Canis lupus familiaris, Heart left ventricle
[25] = system: Rattus norvegicus; experiment: Peak percent change in contractile force produced by the administration of 1 mg/kg intravenously in ansthetetized rat; format: functional; details: route intravenous

For `Clc1c[nH]c(-c2ncc[nH]2)n1`, the ED25 [1] was “inactive”.

`Cn1cc(C#N)nc1-c1ncc[nH]1` showed an ED25 [2] of 0.17 mg/kg.

In the case of `NCc1c[nH]c(-c2ncc[nH]2)n1`, the ED25 [3] is reported as “inactive”.

`C[Si](C)(C)CCOCn1ccnc1-c1nccn1COCC[Si](C)(C)C` was tested, and the ED25 [4] was “inactive”.

In the case of `N#Cc1c[nH]c(-c2c[nH]cn2)n1`, the Change [5] is reported as 25%.

`N#Cc1c[nH]c(-c2csc(NC(=N)N)n2)n1` was tested, and the Change [6] was “inactive”.

`OCc1c[nH]c(-c2ncc[nH]2)n1` gave a Change [5] of 0%.

For `O=Cc1c[nH]c(-c2nc(C=O)c[nH]2)n1`, the ED25 [1] was “inactive”.

Molecule `Cn1c(Cl)cnc1-c1nc(C#N)c[nH]1` has a Change [5] of 11%.

`CSc1c[nH]c(-c2ncc[nH]2)n1` showed a Change [5] of 4%.

Molecule `C[S+]([O-])c1c[nH]c(-c2ncc[nH]2)n1` (configuration not stated) has a Change [5] of 1%.

`N#Cc1c[nH]c(-c2nc(-c3ccccc3)c[nH]2)n1` showed an ED25 [7] of 0.89 mg/kg.

In the case of `c1c[nH]c(-c2nc(-c3nn[nH]n3)c[nH]2)n1`, the Change [5] is reported as 0% and the ED25 [3] is reported as “inactive”.

In the case of `N#Cc1c[nH]c(-c2nc(Br)c[nH]2)n1`, the ED25 [8] is reported as 0.2 mg/kg.

With `N#Cc1[nH]cnc1-c1ncc[nH]1` the Change [5] was 0%.

With `FC(F)(F)c1c[nH]c(-c2nc(Br)c[nH]2)n1` the ED25 [1] was “inactive”.

`FC(F)(F)c1c[nH]c(-c2c[nH]cn2)n1` was tested, and the Change [5] was 0%.

For `N#Cc1c[nH]c(-c2cccs2)n1`, the ED25 [3] was “inactive”.

For `CN(C)Cc1ccc(-c2nc(C#N)c[nH]2)o1`, the Change [6] was “inactive”.

`N#Cc1c[nH]c(-c2ccco2)n1` was tested, and the ED25 [3] was “inactive”.

`C[C@@H]1C(=O)NC2=Nc3cccc(Cl)c3CN21` [QUAZINONE] was tested, and the Change [9] was 47%.

With `Cc1[nH]c(=O)c(C#N)cc1-c1ccncc1` [MILRINONE] the Change [5] was 52%, the ED25 [10] was 0.06 mg/kg and the Change [11] was 110%. For the same molecule, the ED25 [12] was 0.3 mg/kg.

With `N#Cc1c[nH]c(-c2nc(Cl)c[nH]2)n1` the Change [13] was 95%.

`Nc1cc(-c2ccncc2)c[nH]c1=O` [INAMRINONE] was tested, and the Change [11] was 19% and the inhibition [14] was 24%.

`N#Cc1c[nH]c(-c2cc[nH]n2)n1` was tested, and the Change [5] was -4% and the ED25 [3] was “inactive”.

`N#Cc1c[nH]c(-c2nc(-c3ccc(C(F)(F)F)cc3)c[nH]2)n1` was tested, and the ED25 [2] was 0.26 mg/kg.

With `NC(=O)c1c[nH]c(-c2ncc[nH]2)n1` the ED25 [3] was “inactive”.

With `N#Cc1c[nH]c(-c2ncc[nH]2)n1` the “Increase in heart rate” value [15] was 45 beats min-1, the IC50 [16] was 36.7 µM and the IC50 [17] was 339 µM. For the same molecule, the ED25 [18] was 0.16 mg/kg and the Change [19] was 60%.

For `N#Cc1c[nH]c(-c2ccc(Br)s2)n1`, the ED25 [3] was “inactive”.

For `O=C(O)c1c[nH]c(-c2ncc[nH]2)n1`, the ED25 [3] was “inactive”.

Molecule `CSc1ccc(C(=O)c2[nH]c(=O)[nH]c2C)cc1` [ENOXIMONE] has a Change [5] of 73%, an ED25 [10] of 0.46 mg/kg and an ED25 [12] of 1.4 mg/kg. It also gave an inhibition [20] of 34%.

For `O=Cc1c[nH]c(-c2ncc[nH]2)n1`, the ED25 [1] was “inactive”.

For `Cc1ccsc1-c1nc(C#N)c[nH]1`, the ED25 [3] was “inactive”.

Work on `N#Cc1c[nH]c(-c2ccc(-c3nc(C#N)c[nH]3)cc2)n1` yielded a Change [5] of 8%.

`CCn1ccnc1-c1nc(C#N)c[nH]1` was tested, and the Change [5] was 41%.

In the case of `N#Cc1c[nH]c(-c2cccnc2)n1`, the Change [5] is reported as 31% and the ED25 [3] is reported as “inactive”.

For `Cn1c(C#N)cnc1-c1ncc[nH]1`, the Change [5] was 3%.

In the case of `C=Cn1ccnc1-c1nc(C#N)c[nH]1`, the Change [5] is reported as 41%.

`N#Cc1c[nH]c(-c2nccn2Cc2ccccc2)n1` showed a Change [5] of 2%.

With `N#Cc1c[nH]c(-c2nc(Br)c(Br)[nH]2)n1` the Change [13] was 96%.

With `COc1ccc(-c2c[nH]c(-c3nc(C#N)c[nH]3)n2)cc1` the Change [5] was 106% and the ED25 [2] was 0.36 mg/kg.

In the case of `N#Cc1c[nH]c(-c2nc(C#N)c[nH]2)n1`, the ED25 [2] is reported as 0.18 mg/kg.

For `Clc1c[nH]c(-c2nc(Cl)c[nH]2)n1`, the ED25 [21] was 0.7 mg/kg.

`FC(F)(F)c1c[nH]c(-c2ncc[nH]2)n1` was tested, and the ED25 [22] was “inactive”.

For `N#Cc1c[nH]c(-c2cn[nH]c2)n1`, the Change [23] was “inactive” and the ED25 [3] was “inactive”.

Molecule `Cn1ccnc1-c1nc(C#N)c[nH]1` has a Change [5] of 29%.

In the case of `Brc1c[nH]c(-c2ncc[nH]2)n1`, the ED25 [21] is reported as 5.5 mg/kg.

`N#Cc1c[nH]c(-c2ccc(-n3ccnc3)cc2)n1` gave a Change [5] of 17%.

`Cc1c[nH]c(-c2nc(C#N)c[nH]2)n1` gave an ED25 [24] of 0.63 mg/kg.

`Cn1ccnc1-c1ncc(C#N)n1C` showed a Change [25] of 13%.

For `N#Cc1c[nH]c(-c2nc(C(F)(F)F)c[nH]2)n1`, the ED25 [2] was 0.33 mg/kg.

Work on `N#Cc1c[nH]c(-c2nccn2-c2ccccc2)n1` yielded a Change [5] of 0%.

`COC(=O)c1c[nH]c(-c2ncc[nH]2)n1` was tested, and the ED25 [3] was “inactive”.

Molecule `c1c[nH]c(-c2ncc[nH]2)n1` has an ED25 [12] of 0.24 mg/kg.

`Cc1c[nH]c(-c2ncc[nH]2)n1` was tested, and the ED25 [3] was “inactive”.

With `Brc1c[nH]c(-c2nc(Br)c[nH]2)n1` the ED25 [1] was “inactive”.
